Source: publication PMC12796071, “Evaluation of [^18F]MNI-1054, a novel PET ligand for lysine-specific histone demethylase 1A (LSD1), in non-human primates” (EJNMMI Research, 2025)
Values joined by “and” are separate entries in the source; they are usually repeats but may differ in a detail not shown here. Equal values may be shown once. “Also recorded” adds a separate entry of the source.

Assay: Whole-body PET biodistribution and radiation dosimetry (OLINDA 2.0)
Type: in vivo
Conditions: for Dose, Urinary bladder wall: no-bladder-void model; for whole-body effective dose, ED (ICRP-103): scaled from NHP to human
Description: Dynamic whole-body PET was conducted in one male (M3, 15.4 kg) and one female (M4, 6.8 kg) rhesus to study the biodistribution and radiation dosimetry of [^18F]MNI-1054. Whole-body images were acquired over ~4 h (17–19 passes, 4 bed positions) using a Biograph mCT PET/CT scanner (Siemens). The images in the series were subsequently reconstructed in 400 × 400 × 300 pixel arrays with pixel size: 2 × 2 × 2 mm^3 using the iterative True-X algorithm (4 iterations, 21 subsets) provided by the camera manufacturer, incorporating point spread function modeling and corrections for random, scatter, normalization, dead-time and attenuation. Prior to PET, each animal received a whole-body CT for correcting attenuation and scatter as well as to assist in anatomical localization of organs of interest.
Reconstructed whole-body PET volumes were transferred to PMOD software (PMOD Technologies, Zurich, Switzerland) for analysis. Decay correction was first removed to facilitate the calculation of radioactive disintegrations from dynamic data. Images were reviewed for assessment of body organ radioactivity distribution. VOIs were manually drawn to capture the following organs: brain, heart wall, lungs, gallbladder, liver, kidneys, spleen, testes (male), urinary bladder, back vertebrae, and intestines, and defined dynamically to account for any animal movement or shift in organ position or shape between acquisitions. Total activity (kBq) within each VOI was determined and organ TACs were generated and expressed as percent of the injected activity.
The number of disintegrations per unit activity administered in each source organ (i.e., the “residence times” or “time-integrated activity coefficients”), τ, were computed from the areas under the non-decay corrected TACs via the trapezoidal method. The area under the curve from the end of imaging to infinity was calculated with the assumption of physical decay only following the last imaging time point. Residence times were converted to adult human values using conversion factors based on differences in organ and body weights between both species. The ICRP 100 HAT gastrointestinal (GI) tract model was applied to estimate residence times in the left, right, and sigmoid (i.e., rectum) colon and small intestine, with the assumption that activity entered the GI tract via the small intestine with no reabsorption. The intestinal decay-corrected time-activity curve was used for estimating the fraction of the radioactivity entering the intestine during imaging. Red marrow residence times were calculated based on assumption that vertebrae contain ~40% of total red marrow.
OLINDA 2.0 software (Hermes Medical Solutions) was used to estimate the organ and whole-body radiation absorbed doses. OLINDA 2.0 performs internal dose calculations based on MIRD and Radiation Dose Assessment Resource (RADAR) methodology. ICRP-89 adult male (73 kg) and female (60 kg) models were used to calculate the s-factors. All other MIRD assumptions about the homogeneity of source organ distribution were employed. The effective doses were computed with biological tissue weighting factors defined in the ICRP Publication 103 [26].

Cc1cc([18F])ncc1C(=O)Nc1ccc([C@@H]2C[C@H]2NCC2CC2)cc1 [[^18F]MNI-1054]
Dose, Adrenals (ICRP-89 adult female model): 2.24E-02 mSv/MBq
Dose, Brain (ICRP-89 adult female model): 1.22E-02 mSv/MBq
Dose, Breasts (ICRP-89 adult female model): 1.06E-02 mSv/MBq
Dose, Esophagus (ICRP-89 adult female model): 1.75E-02 mSv/MBq
Dose, Eyes (ICRP-89 adult female model): 9.29E-03 mSv/MBq
Dose, Gallbladder wall (ICRP-89 adult female model): 2.88E-01 mSv/MBq
Dose, Heart wall (ICRP-89 adult female model): 4.98E-02 mSv/MBq
Dose, Kidneys (ICRP-89 adult female model): 5.28E-02 mSv/MBq
Dose, Left colon (ICRP-89 adult female model): 3.02E-02 mSv/MBq
Dose, Liver (ICRP-89 adult female model): 2.29E-02 mSv/MBq
Dose, Lungs (ICRP-89 adult female model): 6.16E-02 mSv/MBq
Dose, Osteogenic cells (ICRP-89 adult female model): 1.36E-02 mSv/MBq
Dose, Ovaries (ICRP-89 adult female model): 1.66E-02 mSv/MBq
Dose, Pancreas (ICRP-89 adult female model): 2.12E-02 mSv/MBq
Dose, Rectum (ICRP-89 adult female model): 1.88E-02 mSv/MBq
Dose, Red marrow (ICRP-89 adult female model): 2.01E-02 mSv/MBq
Dose, Right colon (ICRP-89 adult female model): 6.29E-02 mSv/MBq
Dose, Salivary glands (ICRP-89 adult female model): 1.01E-02 mSv/MBq
Dose, Small intestine (ICRP-89 adult female model): 6.01E-02 mSv/MBq
Dose, Spleen (ICRP-89 adult female model): 2.77E-02 mSv/MBq
Dose, Stomach wall (ICRP-89 adult female model): 1.69E-02 mSv/MBq
Dose, Thymus (ICRP-89 adult female model): 1.88E-02 mSv/MBq
Dose, Thyroid (ICRP-89 adult female model): 1.32E-02 mSv/MBq
Dose, Total body (ICRP-89 adult female model): 1.53E-02 mSv/MBq
Dose, Uterus (ICRP-89 adult female model): 1.92E-02 mSv/MBq
Dose, Urinary bladder wall (ICRP-89 adult female model): 5.92E-02 mSv/MBq
whole-body effective dose, ED (ICRP-103) (ICRP-89 adult female model): 0.0272 mSv/MBq and 2.72E-02 mSv/MBq
Dose, Adrenals (ICRP-89 adult male model): 1.87E-02 mSv/MBq
Dose, Brain (ICRP-89 adult male model): 9.69E-03 mSv/MBq
Dose, Esophagus (ICRP-89 adult male model): 1.49E-02 mSv/MBq
Dose, Eyes (ICRP-89 adult male model): 7.78E-03 mSv/MBq
Dose, Gallbladder wall (ICRP-89 adult male model): 6.57E-02 mSv/MBq
Dose, Heart wall (ICRP-89 adult male model): 4.90E-02 mSv/MBq
Dose, Kidneys (ICRP-89 adult male model): 4.63E-02 mSv/MBq
Dose, Left colon (ICRP-89 adult male model): 1.62E-02 mSv/MBq
Dose, Liver (ICRP-89 adult male model): 3.02E-02 mSv/MBq
Dose, Lungs (ICRP-89 adult male model): 4.01E-02 mSv/MBq
Dose, Osteogenic cells (ICRP-89 adult male model): 1.21E-02 mSv/MBq
Dose, Pancreas (ICRP-89 adult male model): 1.48E-02 mSv/MBq
Dose, Prostate (ICRP-89 adult male model): 1.78E-02 mSv/MBq
Dose, Rectum (ICRP-89 adult male model): 1.60E-02 mSv/MBq
Dose, Red marrow (ICRP-89 adult male model): 1.65E-02 mSv/MBq
Dose, Right colon (ICRP-89 adult male model): 2.37E-02 mSv/MBq
Dose, Salivary glands (ICRP-89 adult male model): 9.10E-03 mSv/MBq
Dose, Small intestine (ICRP-89 adult male model): 2.08E-02 mSv/MBq
Dose, Spleen (ICRP-89 adult male model): 1.84E-02 mSv/MBq
Dose, Stomach wall (ICRP-89 adult male model): 1.42E-02 mSv/MBq
Dose, Testes (ICRP-89 adult male model): 3.17E-02 mSv/MBq
Dose, Thymus (ICRP-89 adult male model): 1.44E-02 mSv/MBq
Dose, Thyroid (ICRP-89 adult male model): 1.14E-02 mSv/MBq
Dose, Total body (ICRP-89 adult male model): 1.16E-02 mSv/MBq
Dose, Urinary bladder wall (ICRP-89 adult male model): 1.24E-01 mSv/MBq
whole-body effective dose, ED (ICRP-103) (ICRP-89 adult male model): 0.0267 mSv/MBq and 2.67E-02 mSv/MBq
Dose, Adrenals (Mean): 2.06E-02 mSv/MBq
Dose, Brain (Mean): 1.09E-02 mSv/MBq
Dose, Breasts (Mean): 1.06E-02 mSv/MBq
Dose, Esophagus (Mean): 1.62E-02 mSv/MBq
Dose, Eyes (Mean): 8.54E-03 mSv/MBq
Dose, Gallbladder wall (Mean): 0.18 mSv/MBq and 0.177 mSv/MBq and 1.77E-01 mSv/MBq
Dose, Heart wall (Mean): 4.94E-02 mSv/MBq
Dose, Kidneys (Mean): 4.96E-02 mSv/MBq
Dose, Left colon (Mean): 2.32E-02 mSv/MBq
Dose, Liver (Mean): 2.66E-02 mSv/MBq
Dose, Lungs (Mean): 5.09E-02 mSv/MBq
Dose, Osteogenic cells (Mean): 1.29E-02 mSv/MBq
Dose, Ovaries (Mean): 1.66E-02 mSv/MBq
Dose, Pancreas (Mean): 1.80E-02 mSv/MBq
Dose, Prostate (Mean): 1.78E-02 mSv/MBq
Dose, Rectum (Mean): 1.74E-02 mSv/MBq
Dose, Red marrow (Mean): 1.83E-02 mSv/MBq
Dose, Right colon (Mean): 4.33E-02 mSv/MBq
Dose, Salivary glands (Mean): 9.60E-03 mSv/MBq
Dose, Small intestine (Mean): 4.05E-02 mSv/MBq
Dose, Spleen (Mean): 2.31E-02 mSv/MBq
Dose, Stomach wall (Mean): 1.56E-02 mSv/MBq
Dose, Testes (Mean): 3.17E-02 mSv/MBq
Dose, Thymus (Mean): 1.66E-02 mSv/MBq
Dose, Thyroid (Mean): 1.23E-02 mSv/MBq
Dose, Total body (Mean): 1.35E-02 mSv/MBq
Dose, Uterus (Mean): 1.92E-02 mSv/MBq
Dose, Urinary bladder wall (Mean): 0.0916 mSv/MBq and 9.16E-02 mSv/MBq
whole-body effective dose, ED (ICRP-103) (Mean): 2.70E-02 mSv/MBq
whole-body effective dose per 185 MBq injected (female value): 5.03 mSv
maximal dose allowed for a single study per 21 CFR § 361.1 (gallbladder wall as the dose-limiting organ): 282.5 MBq
elimination pathways (whole-body imaging): eliminated via both hepatobiliary and urinary pathways; also recorded: urinary (primary) and hepatobiliary pathways
